Measured values as given in PMC13242511, “Disrupting Notch signalling by a small molecule inhibiting dihydroorotate dehydrogenase activity” (Scientific Reports, 2026).

Legend:
Format in all cases: cell-based
γ-secretase complex = γ-secretase complex (Homo sapiens, UniProt P49768); test: APP-C99 counter assay (GSI reporter assay); settings: for 3p-DR in % of DMSO counter: APP-C99 counter assay
Method in brief: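 Cells transfected with APP-C99 firefly luciferase reporter plus renilla normalization plasmid, seeded 24 h later onto compound plates and cultured 24 h. Dual luciferase read in triplicate per concentration; IC50 from variable-slope log(inhibitor) fit, with AUC also calculated from dose–response curves.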

Notch signalling [1] = test: Notch reporter assay (12xCSL firefly luciferase / renilla luciferase, HEK293T Notch1ΔE reporter cell line clone #A1-11); settings: 24 h, unit from Fig. 2 legend
Notch signalling [2] = test: as above; parameters: Confirmation screen: unit not given here; settings: for inhibitor ratio in % of DMSO in 3 point DR: 3-point DR confirmation screen, Notch reporter assay
Method in brief: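 Compounds at two-fold concentration in 10 µl medium were brought to one-fold by adding 10 µl holding 4000 Notch reporter cells (clone #A1-11) per well of a 384-well plate. After 24 h, Promega dual-GLO firefly and renilla luciferase were read on a SpectraMaxi3. Dose-response curves were fitted with a log(inhibitor) vs. response variable-slope model.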

[3] = 10 µM, sheet conf vs counter 10 µM
[4] = 25 µM, sheet "conf vs counter 25 µM", same values given as % of DMSO in sheet "3p-DR in % of DMSO counter"
[5] = 10 µM, sheet conf vs counter 10 µM, same values as 3-point DR confirmation screen
[6] = 25 µM, Notch reporter 3-point dose-confirmation assay, sheet "conf vs counter 25 µM"

Compound | 3p-DR in % of DMSO counter (γ-secretase complex; 10µM) | Counter screen (Hek APP-C99) (γ-secretase complex; [3]) | 3p-DR in % of DMSO counter (γ-secretase complex; 25µM) | Counter screen (Hek APP-C99) (γ-secretase complex; [4]) | 3p-DR in % of DMSO counter (γ-secretase complex; 1,25µM) | Primary screen at 10 µM (Notch reporter signal) (Notch signalling [1]) | inhibitor ratio in % of DMSO in 3 point DR (Notch signalling [2]; 10µM) | Confirmation screen (Notch signalling [2]; [5]) | inhibitor ratio in % of DMSO in 3 point DR (Notch signalling [2]; 25µM) | Confirmation screen (Notch signalling [2]; [6]) | inhibitor ratio in % of DMSO in 3 point DR (Notch signalling [2]; 1,25µM)
COc1ccc(-c2noc([C@@H]3Cc4[nH]cnc4CN3C(=O)CCC(=O)O)n2)cc1 [CBK288967] | 62.4 % of DMSO | 62.4 | 22.0 % of DMSO | 22.0 | 131.3 % of DMSO | 51.7 % of DMSO | 51.6 % of DMSO | 51.6 | 56.4 % of DMSO | 56.4 | 72.4 % of DMSO
c1ccc2oc(CN3Cc4nc[nH]c4C[C@H]3c3nc(-c4ccc5c(c4)OCO5)no3)cc2c1 [CBK288998] | 93.1 % of DMSO | 93.1 | 78.1 % of DMSO | 78.1 | 112.2 % of DMSO | 68.4 % of DMSO | 72.8 % of DMSO | 72.8 | 66.3 % of DMSO | 66.3 | 89.6 % of DMSO
CC(C)Nc1cncc(OCc2ccc(Cl)c(Cl)c2)n1 [CBK115653] | 31.9 % of DMSO | 31.8 | 19.5 % of DMSO | 19.5 | 104.9 % of DMSO | 41.7 % of DMSO | 44.3 % of DMSO | 44.3 | 30.6 % of DMSO | 30.6 | 102.4 % of DMSO
C[C@@H]1C(=O)O[C@H]2[C@H]1CC[C@@]1(C)Cc3sc(NC(=O)CCC(=O)O)nc3[C@@H](C)[C@H]21 [CBK289429] | 23.7 % of DMSO | 23.6 | 12.4 % of DMSO | 12.4 | 76.3 % of DMSO | 35.5 % of DMSO | 38.0 % of DMSO | 38.0 | 25.1 % of DMSO | 25.1 | 77.4 % of DMSO
NC(=O)c1[nH]nc(C2OC(CO)C(O)C2O)c1O (centres unmarked) [CBK201236] | 107.3 % of DMSO | 107.3 | 111.1 % of DMSO | 111.1 | 135.7 % of DMSO | 54.3 % of DMSO | 67.4 % of DMSO | 67.4 | 65.5 % of DMSO | 65.5 | 68.2 % of DMSO
CCCC(=O)c1ccc(S(=O)(=O)N2CCN(Cc3csc(-c4ccccc4)n3)CC2)cc1 [CBK063161] | 124.1 % of DMSO | 124.1 | 120.8 % of DMSO | 120.8 | 122.5 % of DMSO | 68.2 % of DMSO | 67.2 % of DMSO | 67.2 | 76.4 % of DMSO | 76.4 | 102.6 % of DMSO
Cc1ccc(NC(=O)c2cnc(SCc3ccc(F)cc3)n(C)c2=O)cc1C [CBK287674] | 109.0 % of DMSO | 108.9 | 82.2 % of DMSO | 82.2 | 116.8 % of DMSO | 65.6 % of DMSO | 73.8 % of DMSO | 73.8 | 47.2 % of DMSO | 47.2 | 99.3 % of DMSO
